Earlier results, collected in US8778914B2, “Bisphosphonate-prodrugs” (priority 2009, dated 2014).
Numbered stars: 1 amine (or outer) side, 2 acyl side, 3 side chain; on linkers, the order of the positions; unused ones are H or OH. Square brackets hold non-standard residues; d marks the D form. Side chains are listed from the residue outwards. Peptide text beside a SMILES is read from it. * marks the point of attachment. DAMPA = CN(Cc1cnc2nc(N)nc(N)c2n1)c1ccc(C(=O)*)cc1; Hexanoyl(6-maleimido) = O=C1C=CC(=O)N1CCCCCC(=O)*; γGlu = O=C(O)[C@H](CCC(=O)[*:2])N[*:1]

Tests used:
[1] = pH 5.0; F. Kratz et al., J. Med. Chem. 2002
Cathepsin B = Cathepsin B (Homo sapiens, UniProt P07858); settings: releases (gamma-MTX); reported in A. Warnecke et al., Arch. Pharm. 2007
plasmin = plasmin (Homo sapiens, UniProt P00747); settings: releases (gamma-MTX); reported in A. Warnecke et al., Arch. Pharm. 2007
Sequence of plasmin (P00747 581-810 limits assumed, species assumed): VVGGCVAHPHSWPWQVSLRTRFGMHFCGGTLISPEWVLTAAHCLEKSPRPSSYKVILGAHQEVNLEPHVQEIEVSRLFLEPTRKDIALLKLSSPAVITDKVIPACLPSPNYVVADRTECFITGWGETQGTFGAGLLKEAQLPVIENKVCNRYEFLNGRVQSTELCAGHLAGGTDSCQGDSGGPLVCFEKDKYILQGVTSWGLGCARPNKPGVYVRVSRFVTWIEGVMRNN
Sequence of plasmin (P00747 97-580 partner limits assumed, species assumed): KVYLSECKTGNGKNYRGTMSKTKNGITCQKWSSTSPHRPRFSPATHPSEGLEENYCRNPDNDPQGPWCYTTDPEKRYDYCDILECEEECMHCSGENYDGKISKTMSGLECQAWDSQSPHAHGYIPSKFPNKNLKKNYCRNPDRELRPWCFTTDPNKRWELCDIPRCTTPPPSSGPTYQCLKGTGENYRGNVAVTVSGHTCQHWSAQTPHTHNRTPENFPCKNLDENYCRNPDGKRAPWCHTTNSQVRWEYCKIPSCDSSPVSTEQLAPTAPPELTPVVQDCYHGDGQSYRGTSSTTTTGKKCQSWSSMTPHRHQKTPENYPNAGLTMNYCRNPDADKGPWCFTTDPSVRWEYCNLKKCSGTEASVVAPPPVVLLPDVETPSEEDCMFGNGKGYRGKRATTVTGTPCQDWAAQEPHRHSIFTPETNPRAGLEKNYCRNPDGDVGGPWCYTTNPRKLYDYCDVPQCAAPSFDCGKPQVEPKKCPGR

SMILES	acid-sensitive cleavage, release of doxorubicin [1]	cleavage by Cathepsin B (Cathepsin B)	cleavage by plasmin (plasmin)
COc1cccc2c1C(=O)c1c(O)c3c(c(O)c1C2=O)C[C@@](O)(/C(CO)=N/NC(=O)CCCCCN1C(=O)C=CC1=O)C[C@@H]3O[C@H]1C[C@H](N)[C@H](O)[C@H](C)O1 [DOXO-EMCH, 6-maleimidocaproylhydazone derivative of doxorubicin]	cleavable	–	–
C[C@@H](NC(=O)CCCCCN1C(=O)C=CC1=O)C(=O)N[C@@H](Cc1ccccc1)C(=O)N[C@@H](CCCCN)C(=O)N[C@@H](CCCCNC(=O)CC[C@H](NC(=O)c1ccc(N(C)Cc2cnc3nc(N)nc(N)c3n2)cc1)C(=O)O)C(=O)O [EMC-D-Ala-Phe-Lys-Lys-(gamma-MTX)-OH] ({Hexanoyl(6-maleimido)}-[dA]FKK([γGlu-DAMPA])-OH)	–	cleaved between Lys-Lys	cleaved between Lys-Lys
